Data reported in US20240299505A1, “COMPOSITION FOR IMPROVING, PREVENTING OR TREATING INFLAMMATORY BOWEL DISEASE COMPRISING NAMPT-DERIVED PEPTIDE AS ACTIVE INGREDIENT” (Industry-University Cooperation Foundation Hanyang …, priority 2023, published 2024).

Legend:
[1] = system: colonic tissues; conditions: mice with acute colitis, intraperitoneal injection, Cy5.5 conjugate
Description: The number of ITGA6+ or ITGB1+ cells was analyzed by FACS.
Mice were intravenously injected with a lentivirus expressing nonspecific shRNA (shNS) or shRNA specific for ITGA6 (sh ITGA6) or ITGB1 (shITGB1) 2 times and then orally administered with DSS (Acute or chronic Colitis) and rCT-NAMPT, and then experiments were performed.
Next, to evaluate the specificity of rCT-NAMPT, ITGA6- or ITGB1-knockdown mice were generated through sh-Lentiviral transduction. The mice were treated with DSS and administered rCT-NAMPT/Cy5.5 via intraperitoneal injection on day 6.

[2] = system: DSS-induced chronic colitis; assay: DSS-induced chronic colitis mouse model; assay type: in vivo, C57BL/6 mice; conditions: 50 μg/kg i.p.
Description: FIG. 10 confirms an effect of rCT-NAMPT in mice with DSS-induced chronic colitis. Specifically, (A) Scheme of the chronic colitis model treated with rCT-NAMPT (50 μg/kg) and 3% DSS. (B) The survival of mice was tracked for 9 weeks, and mortality was calculated for n=15 mice per group. Statistical differences between rVehicle treated animals were recorded (log-rank test). […] (C) Weight loss of rVehicle, rCT or rCT-NAMPT treatment in mice was confirmed (n=15). (D) Image (upper) and length (lower) of colon in 3% DSS-induced chronic colitis mice with rVehicle, rCT or rCT-NAMPT. (E) H&E staining of the colon (left) (n=8): a representative image. H&E staining was used to evaluate histopathology scores in 3% DSS-induced chronic colitis mice treated with rVehicle, rCT, or rCT-NAMPT. […]
(§1) Dextran sodium sulfate (DSS)-induced acute or chronic colitis mouse models were constructed using 6-week-old C57BL/6 female mice (Samtako, Osan, Korea). […] The survival of mice was tracked for 12 days, and mortality was measured for n=15 mice per group. […] The survival of mice was tracked for 9 weeks, and mortality was measured for n=15 mice per group. […]
Body weight, degree of bloody stool, and stool concentration were measured every day during the colitis induction to obtain the clinical score. The clinical score was determined by two trained investigators who were not provided with information about the experiment. […]

[3] = system: DSS-induced acute colitis; assay: DSS-induced acute colitis mouse model (Lenti-shNS or Lenti-shITG transduced); assay type: in vivo, C57BL/6 mice; conditions: Lenti-shNS-transduced mice
Description: FIG. 8 confirms an effect of rCT-NAMPT in mice with DSS-induced acute colitis. Specifically, (A) an experimental plan for an acute colitis model treated with rCT-NAMPT (50 μg/kg) and 3% DSS after introduction of Lenti-shNS or Lenti-shITG virus (left) and the survival rates of mice monitored for 12 days (right). Mortality was measured with n=15 mice per group. Statistical differences between rVehicle treated animals were recorded (log-rank test). […] (B) confirms a change in body weight of the experimental animals during an experiment period in (A) above (n=8). (C) is a colitis score result of the experimental animals in (A) above. […] (H) Results of hematoxylin and eosin (H&E) staining of the colon (left) (n=10): Representative radiohistopathology scores were evaluated using rVehicle, rCT, or rCT-NAMPT in 3% DSS-treated mice as illustrated in techniques (Materials and Methods). Statistical significance was evaluated using a Student's t-test using Bonferroni correction (***p<0.001) in comparison to rVehicle;
as §1

TWYKIAFQRNRK [rCT]
tissue targeting (colon versus other organs) [1]: specifically targeted colonic tissues in mice with acute colitis, but not in other organs
body weights [2]: Body weights fluctuated
survival rate / mortality ([3]; 3% DSS, 50 μg/kg i.p. 8 times, 12 days): Neither rVehicle or rCT significantly affected mortality
colon histology (H&E staining) ([3]; DSS): disrupted by DSS
